Measurements reported in US6040330A, “Pharmaceutical formulations of taxanes” (BioNumerik Pharmaceuticals, Inc., priority 1999, dated 2000).
In brackets after ≈: the same amount, converted by molar mass.

Legend:
[1] = cited from earlier work
[2] = maximum solubility in NMP; assay type: physicochemical; conditions: organic solvent or mixture; in NMP (N-methylpyrrolidin-2-one)

solubility [2] [mg/mL]	Structure (SMILES)	solubility in water (in words) [1]	water solubility ([1]; in water)
~40 (≈ 49.5 mM)	CC(=O)O[C@@]12CO[C@@H]1C[C@H](O)[C@@]1(C)C(=O)[C@H](O)C3=C(C)[C@@H](OC(=O)[C@H](O)[C@@H](NC(=O)OC(C)(C)C)c4ccccc4)C[C@@](O)([C@@H](OC(=O)c4ccccc4)[C@H]21)C3(C)C [Docetaxel]	very poorly soluble in water	–
~40 (≈ 46.8 mM)	CC(=O)O[C@H]1C(=O)[C@@]2(C)[C@H]([C@H](OC(=O)c3ccccc3)[C@]3(O)C[C@H](OC(=O)[C@H](O)[C@@H](NC(=O)c4ccccc4)c4ccccc4)C(C)=C1C3(C)C)[C@]1(OC(C)=O)CO[C@@H]1C[C@@H]2O [Paclitaxel]	very poorly water soluble	less than 10 μg/mL
